The results in this text go back to patent US20100081679A1, “DIAMINOPYRIMIDINES AS FUNGICIDES” (Bayer CropScience AG, priority 2007, published 2010).

Marks after values point to notes of the source that are not given here.

The data set is described as follows: logP determination via retention times, calibrated with unbranched alkan-2-ones. It counts as physicochemical.
The mark [1] stands for this setting: HPLC reversed-phase C 18, EEC Directive 79/831 Annex V.A8, method *: 40° C., 0.1% aqueous formic acid and acetonitrile, linear gradient 10% to 95% acetonitrile.
[2] abbreviates: HPLC on reversed-phase C 18, EEC Directive 79/831 Annex V.A8, method *: 40° C., 0.1% aqueous formic acid and acetonitrile, linear gradient 10% to 95% acetonitrile.
The mark [3] stands for this setting: method **: HPLC reversed-phase C 18, 43° C., 0.1% aqueous phosphoric acid and acetonitrile, linear gradient 10% to 95% acetonitrile.
Setting [4] is: HPLC on reversed-phase C18, method *: 40° C., 0.1% aqueous formic acid and acetonitrile, linear gradient 10% to 95% acetonitrile.
The mark [5] stands for this setting: method *: HPLC, reversed-phase C 18, 40° C., mobile phase 0.1% aqueous formic acid and acetonitrile, linear gradient from 10% to 95% acetonitrile.
Setting [6] is: HPLC on reversed-phase C18, method *: 40° C., mobile phase 0.1% aqueous formic acid and acetonitrile, linear gradient 10% to 95% acetonitrile.
Setting [7] is: method *: HPLC reversed-phase C18, 40° C., 0.1% aqueous formic acid and acetonitrile, linear gradient 10% to 95% acetonitrile.
[8] abbreviates: method *: HPLC reversed-phase C 18, temperature 40° C., mobile phase 0.1% aqueous formic acid and acetonitrile, linear gradient 10% to 95% acetonitrile.

`CC(O)C(=O)Nc1cccc(Nc2ncc(Cl)c(NC3CC3)n2)c1` (stereo not shown) [compound 856]: under setting [1], the logP was 1.49*.
With `Fc1ccc(Nc2ncc(C(F)(F)F)c(NC3CC3)n2)cc1` [compound 498], under “HPLC on reversed-phase C 18, EEC Directive 79/831 Annex V.A8, method **: 43° C., 0.1% aqueous phosphoric acid and acetonitrile, linear gradient 10% to 95% acetonitrile”, the logP was 2.96**.
Take `COC(C)c1cccc(Nc2ncc(Cl)c(NC3CC3)n2)c1` (stereo not shown) [compound 806]: the logP under setting [1] is 1.96*.
For `CN(C)C(=O)c1ccc(Nc2ncc(Cl)c(NCC3CC3)n2)cc1` [compound 509], the logP under setting [2] is listed as 1.59*.
For `CCCCNS(=O)(=O)c1ccc(Nc2ncc(Cl)c(NC3CC3)n2)cc1` [Example 22], the logP under setting [3] is listed as 2.6**.
With `CC(=O)c1cc(Nc2ncc(Br)c(NC3CC3)n2)ccc1O` [compound 763], the logP under setting [4] is on record as 1.75*.
With `CCCCSc1cccc(Nc2ncc(Cl)c(NC3CC3)n2)c1` [compound 1054], the logP under setting [5] is 3.78*.
Regarding `CC1(c2ccc(Nc3ncc(Cl)c(NC4CC4)n3)cc2)CCCC1` [compound 310], the logP under setting [6] is reported as 3.42*.
For `CN(CC1CC1)c1nc(Nc2ccc(N3CCCC3=O)cc2)ncc1Cl` [compound 966], the logP (HPLC on reversed-phase C 18, method **: 43° C., 0.1% aqueous phosphoric acid and acetonitrile, linear gradient 10% to 95% acetonitrile) is 2.09**.
Regarding `Cl.Clc1cnc(Nc2ccccc2)nc1NC1CC1` [Example 29], the logP under setting [3] is listed as 1.75**.
Turning to `FC(F)Sc1ccc(Nc2ncc(Cl)c(NC3CC3)n2)cc1` [compound 94], the logP under setting [7] is on record as 2.77*.
For `CS(=O)(=O)c1ccc(Nc2ncc(Cl)c(NC3CC3)n2)cc1` [Example 50], under setting [3], the logP was 1.75**.
On to `CC(=O)c1cc(Nc2ncc(Cl)c(NCC3CC3)n2)ccc1Cl` [compound 540], for which, under setting [2], the logP was 2.51*.
Take `Brc1cnc(Nc2ccccc2)nc1NC1CC1` [compound 836]: the logP under setting [1] is listed as 2.56*.
Regarding `CC(=O)N(C)c1ccc(Nc2ncc(Cl)c(NCC3CC3)n2)cc1` [compound 671], the logP under setting [4] is 1.58*.
On to `CN(C)C(=O)c1ccc(Nc2ncc(Br)c(NC3CC3)n2)cc1` [compound 351], for which the logP under setting [6] is reported as 1.56*.
For the compound `CC(=O)c1ccc(Nc2ncc(Cl)c(NC3CC3)n2)cc1` [compound 44], the logP under setting [7] is 1.99*.
For `CC(=O)Nc1ccc(Nc2ncc(Cl)c(NCC3CC3)n2)cn1` [compound 507], the logP under setting [2] is reported as 0.89*.
Consider `O=C1CCCN1c1cccc(Nc2ncc(F)c(NC3CC3)n2)c1` [compound 599], for which the logP under setting [8] was 1.37*.
For `COC(=O)c1ccc(Nc2ncc(Cl)c(NCC3CC3)n2)cc1Cl` [compound 691], the logP under setting [4] is reported as 3.1*.
For the compound `N#CCS(=O)(=O)c1ccc(Nc2ncc(Cl)c(NC3CC3)n2)cc1` [compound 62], the logP under setting [7] is 2.2*.
Turning to `COC(=O)c1cccc(Nc2ncc(Cl)c(NC3CC3)n2)c1` [compound 196], the logP (HPLC on reversed-phase C18 column (EEC Directive 79/831 Annex V.A8), method *: 40° C., 0.1% aqueous formic acid and acetonitrile, linear gradient 10% to 95% acetonitrile) was 1.9*.
With `CC(C)c1cccc(Nc2ncc(Cl)c(NC3CC3)n2)c1` [compound 633], under setting [8], the logP was 2.63*.
As to `Clc1cccc(Nc2ncc(Cl)c(NC3(c4ccccc4Cl)CC3)n2)c1` [compound 319], the logP under setting [6] is given as 5.18*.
With `O=C(c1cccc(Nc2ncc(Cl)c(NC3CC3)n2)c1)N1CCSCC1` [compound 1067], under setting [5], the logP was 1.8*.
`CC(C)C1COC(=O)N1c1ccc(Nc2ncc(Cl)c(NC3CC3)n2)cc1` (stereo not shown) [compound 109]: the logP under setting [4] is given as 2.79*.
`CCC(=O)c1cc(Nc2ncc(Br)c(NC3CC3)n2)ccc1O` [compound 760]: under setting [4], the logP was 2.06*.
With `Brc1cnc(Nc2ccccc2)nc1NC1CC1` [compound 1069], the logP under setting [5] is 2.65*.
`O=C1OCCN1c1ccc(Nc2ncc(Br)c(NC3CC3)n2)cc1` [compound 175]: the logP under setting [4] is listed as 1.37*.
For the compound `Clc1ncc(I)c(NC2CC2)n1` [2-chloro-N-cyclopropyl-5-iodopyrimidine-4-amine], the chromatographic logP (pH 2.3, read-out: logP (pH2.3)) stood at 2.19.
As for `C#CCS(=O)(=O)c1ccc(Nc2ncc(Cl)c(NC3CC3)n2)cc1` [compound 161], the logP under setting [4] is 2.21*.
